# Reference: PubChem BioAssay (NCI)
#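 Growth conditions: 96-well plates. Treatment: test compound, 48 hours, 5 concentrations. Analysis: linear interpolation between bracketing concentrations; unreached endpoints set to highest concentration. GI50: concentration for 50% inhibition of growth. TGI: concentration producing complete growth inhibition.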
# Legend:
# Experiment in all cases: inhibition of tumour cell growth, NCI panel, 48 h
# [1] = tested on: SW-620 colon
# [2] = tested on: SF-539 CNS
# [3] = tested on: DU-145 prostate
# [4] = tested on: CAKI-1 renal
# [5] = tested on: HT29 colon
# [6] = tested on: MALME-3M melanoma
# [7] = tested on: MOLT-4 leukemia
# [8] = tested on: SK-MEL-28 melanoma
# [9] = tested on: HL-60(TB) leukemia
# [10] = tested on: HOP-62 NSCLC
# [11] = tested on: U251 CNS
# [12] = tested on: NCI-H460 lung
# [13] = tested on: LOX IMVI melanoma
# [14] = tested on: TK-10 renal
# [15] = tested on: SNB-19 CNS
# [16] = tested on: NCI-H23 lung
# [17] = tested on: OVCAR-3 ovarian
# [18] = tested on: 786-0 renal
# [19] = tested on: HCT-116 colon
# [20] = tested on: SK-MEL-2 melanoma
# [21] = tested on: SF-295 CNS
# [22] = tested on: BT-549 breast
# [23] = tested on: SF-268 CNS
# [24] = tested on: MDA-MB-231 breast
# [25] = tested on: SNB-75 CNS
# [26] = tested on: NCI/ADR-RES ovarian
# [27] = tested on: UACC-62 melanoma
# [28] = tested on: EKVX NSCLC
# [29] = tested on: K-562 leukemia
# [30] = tested on: CCRF-CEM leukemia
# [31] = tested on: T-47D breast
# [32] = tested on: MCF7 breast
# [33] = tested on: UACC-257 melanoma
# [34] = tested on: MDA-MB-435
# [35] = tested on: COLO 205 colon
# [36] = tested on: RXF 393 renal
# [37] = tested on: M14 melanoma
# [38] = tested on: ACHN renal
# [39] = tested on: IGROV1 ovarian
# [40] = tested on: KM12 colon
# [41] = tested on: HCT-15 colon
# [42] = tested on: OVCAR-5 ovarian
# [43] = tested on: SN12C renal
# [44] = tested on: NCI-H522 lung
# [45] = tested on: HCC-2998 colon
# [46] = tested on: PC-3 prostate
# [47] = tested on: OVCAR-8 ovarian
# [48] = tested on: HS 578T breast
# [49] = tested on: A549 NSCLC
# [50] = tested on: UO-31 renal
# [51] = tested on: NCI-H226 lung
# [52] = tested on: SR leukemia
# [53] = tested on: SK-MEL-5 melanoma
# [54] = tested on: SK-OV-3 ovarian
# [55] = tested on: HOP-92 NSCLC
# [56] = tested on: OVCAR-4 ovarian
compound,measurement,setting,value
COc1cc2c(cc1OCCCCCn1c(-c3ccc(OCc4ccccc4)cc3)nc3cc(N4CCOCC4)ccc31)N=C[C@@H]1CCCN1C2=O,GI50,[1],2.12 µM
same,TGI,[1],8.29 µM
same,GI50,[2],2.42 µM
same,TGI,[2],5.41 µM
same,GI50,[3],2.57 µM
same,TGI,[3],11.3 µM
same,GI50,[4],1.43 µM
same,TGI,[4],9 µM
same,GI50,[5],3.26 µM
same,TGI,[5],> 100 µM
same,GI50,[6],2.08 µM
same,TGI,[6],4.49 µM
same,GI50,[7],2.93 µM
same,TGI,[7],> 26.6 µM
same,GI50,[8],2.18 µM
same,TGI,[8],4.61 µM
same,GI50,[9],2.31 µM
same,TGI,[9],> 19.9 µM
same,GI50,[10],3.58 µM
same,TGI,[10],40 µM
same,GI50,[11],2.23 µM
same,TGI,[11],> 100 µM
same,GI50,[12],2.17 µM
same,TGI,[12],5.93 µM
same,GI50,[13],2.02 µM
same,TGI,[13],7.85 µM
same,GI50,[14],3.45 µM
same,TGI,[14],> 36.2 µM
same,GI50,[15],3.71 µM
same,TGI,[15],> 49.8 µM
same,GI50,[16],2.62 µM
same,TGI,[16],6.53 µM
same,GI50,[17],2.06 µM
same,TGI,[17],5.36 µM
same,GI50,[18],3.24 µM
same,TGI,[18],> 69.3 µM
same,GI50,[19],2.39 µM
same,TGI,[19],> 100 µM
same,GI50,[20],0.729 µM
same,TGI,[20],3.02 µM
same,GI50,[21],4.84 µM
same,TGI,[21],> 100 µM
same,GI50,[22],1.52 µM
same,TGI,[22],5.68 µM
same,GI50,[23],2.91 µM
same,TGI,[23],10.4 µM
same,GI50,[24],2.8 µM
same,TGI,[24],> 47.2 µM
same,GI50,[25],1.99 µM
same,TGI,[25],6.63 µM
same,GI50,[26],3.3 µM
same,TGI,[26],26.1 µM
same,GI50,[27],1.72 µM
same,TGI,[27],3.67 µM
same,GI50,[28],4.74 µM
same,TGI,[28],20.7 µM
same,TGI,[29],> 100 µM
same,GI50,[30],1.4 µM
same,GI50,[31],2.17 µM
same,TGI,[31],7.73 µM
same,GI50,[32],1.18 µM
same,TGI,[32],8.77 µM
same,GI50,[33],3.04 µM
same,TGI,[33],7.78 µM
same,GI50,[34],1.87 µM
same,TGI,[34],4.38 µM
same,GI50,[35],2.15 µM
same,TGI,[35],5.13 µM
same,TGI,[36],2.38 µM
same,GI50,[37],2 µM
same,TGI,[37],4.56 µM
same,GI50,[38],2.63 µM
same,TGI,[38],8.31 µM
same,GI50,[39],1.17 µM
same,TGI,[39],5.88 µM
same,GI50,[40],1.93 µM
same,TGI,[40],4.73 µM
same,GI50,[41],2.81 µM
same,TGI,[41],> 31.3 µM
same,GI50,[42],3.49 µM
same,TGI,[42],> 28.9 µM
same,GI50,[43],3.11 µM
same,TGI,[43],47 µM
same,GI50,[44],2.15 µM
same,TGI,[44],8.35 µM
same,GI50,[45],2.09 µM
same,TGI,[45],4.14 µM
same,GI50,[46],3.88 µM
same,TGI,[46],> 100 µM
same,GI50,[47],2.78 µM
same,TGI,[47],> 50.9 µM
same,GI50,[48],2.84 µM
same,TGI,[48],12.8 µM
same,GI50,[49],2.43 µM
same,TGI,[49],7.95 µM
same,GI50,[50],0.377 µM
same,GI50,[51],1.88 µM
same,TGI,[51],4.56 µM
same,GI50,[52],1.05 µM
same,GI50,[53],1.66 µM
same,TGI,[53],3.13 µM
same,GI50,[54],4.16 µM
same,TGI,[54],> 100 µM
same,GI50,[55],2.11 µM
same,TGI,[55],26.2 µM
same,GI50,[56],3.4 µM
same,TGI,[56],59.4 µM
